BindingDB's records for doi:10.1021/jm060666p (University of Massachusetts Medical School, 2006)

Molecular target: T1, Dimer of Gag-Pol polyprotein [491-589,Q496K] (Human immunodeficiency virus 1, UniProt P03369, Q496K)
T1 construct: 491-589
Assay: Enzyme Inhibition Assay
Method: HIV-1 protease inhibitor activities were determined by the fluorescence resonance energy transfer (FRET) method. The energy transfer donor (EDANS) and acceptor (DABCYL) were labeled at two ends of peptide substrate to perform FRET. Fluorescence measurements were carried out on a fluorescence spectrophotometer. Excitation and emission wavelengths were set at 340 and 490 nm. Inhibitor binding dissociation constant Ki was obtained by nonlinear regression fitting to the plot of initial velocity as a function of inhibitor concentrations based on Morrison equation. The initial velocities were derived from the linear range of reaction curves.

SMILES	Ki
COc1cccc(S(=O)(=O)N(C[C@H]2CCCO2)C[C@@H](O)[C@H](Cc2ccccc2)NC(=O)[C@@H]2CN(c3ccccc3)C(=O)O2)c1 [(5S)-N-[(1S,2R)-1-Benzyl-2-hydroxy-3-[[(3-methoxyphenyl)-sulfonyl][(R)-(tetrahydro-2-furanyl)methyl]amino]propyl]-2-oxo-3-phenyloxazolidine-5-carboxamide]	42 nM
COc1cccc(S(=O)(=O)N(C[C@H]2CCCO2)C[C@@H](O)[C@H](Cc2ccccc2)NC(=O)[C@@H]2CN(c3cccc(F)c3)C(=O)O2)c1 [(5S)-N-[(1S,2R)-1-Benzyl-2-hydroxy-3-[[(3-methoxyphenyl)-sulfonyl][(R)-(tetrahydro-2-furanyl)methyl]amino]propyl]-3-(3-fluorophenyl)-2-oxooxazolidine-5-carboxamide]	150 nM
